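Method: 48-hour compound exposure of cells in 96-well plates, five concentrations, linear interpolation of endpoints. The concentration for full growth arrest is given as TGI.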
Experiments:
Assay in all cases: NCI-60 cell line screen, 48 h
MOLT-4 leukemia = test system: MOLT-4 leukemia
RPMI-8226 leukemia = test system: RPMI-8226 leukemia
SK-OV-3 ovarian = test system: SK-OV-3 ovarian
SW-620 colon = test system: SW-620 colon
LOX IMVI melanoma = test system: LOX IMVI melanoma
SF-268 CNS = test system: SF-268 CNS
IGROV1 ovarian = test system: IGROV1 ovarian
SK-MEL-2 melanoma = test system: SK-MEL-2 melanoma
OVCAR-3 ovarian = test system: OVCAR-3 ovarian
PC-3 prostate = test system: PC-3 prostate
HCT-116 colon = test system: HCT-116 colon
HCC-2998 colon = test system: HCC-2998 colon
M14 melanoma = test system: M14 melanoma
MALME-3M melanoma = test system: MALME-3M melanoma
TK-10 renal = test system: TK-10 renal
SNB-19 CNS = test system: SNB-19 CNS
EKVX NSCLC = test system: EKVX NSCLC
HL-60(TB) leukemia = test system: HL-60(TB) leukemia
UO-31 renal = test system: UO-31 renal
NCI-H460 lung = test system: NCI-H460 lung
MCF7 breast = test system: MCF7 breast
SR leukemia = test system: SR leukemia
A498 renal = test system: A498 renal
A549 NSCLC = test system: A549 NSCLC
NCI-H23 lung = test system: NCI-H23 lung
OVCAR-8 ovarian = test system: OVCAR-8 ovarian
SN12C renal = test system: SN12C renal
SK-MEL-5 melanoma = test system: SK-MEL-5 melanoma
NCI/ADR-RES ovarian = test system: NCI/ADR-RES ovarian
786-0 renal = test system: 786-0 renal
UACC-62 melanoma = test system: UACC-62 melanoma
K-562 leukemia = test system: K-562 leukemia
SK-MEL-28 melanoma = test system: SK-MEL-28 melanoma
ACHN renal = test system: ACHN renal
SF-295 CNS = test system: SF-295 CNS
OVCAR-4 ovarian = test system: OVCAR-4 ovarian
BT-549 breast = test system: BT-549 breast
HOP-92 NSCLC = test system: HOP-92 NSCLC
HS 578T breast = test system: HS 578T breast
HOP-62 NSCLC = test system: HOP-62 NSCLC
CAKI-1 renal = test system: CAKI-1 renal
COLO 205 colon = test system: COLO 205 colon
MDA-N = test system: MDA-N
UACC-257 melanoma = test system: UACC-257 melanoma
HT29 colon = test system: HT29 colon
MDA-MB-435 = test system: MDA-MB-435
HCT-15 colon = test system: HCT-15 colon
SF-539 CNS = test system: SF-539 CNS
OVCAR-5 ovarian = test system: OVCAR-5 ovarian
U251 CNS = test system: U251 CNS
KM12 colon = test system: KM12 colon
MDA-MB-231 breast = test system: MDA-MB-231 breast
NCI-H226 lung = test system: NCI-H226 lung
SNB-75 CNS = test system: SNB-75 CNS
T-47D breast = test system: T-47D breast
RXF 393 renal = test system: RXF 393 renal
DU-145 prostate = test system: DU-145 prostate

Measured: TGI

Nc1ncnc2c1[nH]c(=O)n2-c1ccccc1
not listed: U251 CNS | KM12 colon | MDA-MB-231 breast | NCI-H226 lung | SNB-75 CNS | T-47D breast | RXF 393 renal | DU-145 prostate
> 100 µM: all other assays above

NC(=O)C(=Cn1c(=S)[nH]c2ccc([N+](=O)[O-])cc21)C(N)=O
not listed: RPMI-8226 leukemia | PC-3 prostate | MALME-3M melanoma | MCF7 breast | SR leukemia | K-562 leukemia | HS 578T breast
> 100 µM: all other assays above
